Blank lines part the entries; values can stand above or below the compound they belong to. Where a SMILES comes first, the peptide text is derived from it.
How the values were obtained:
[1] = biological target: PA4497 (DppA2) solute binding protein of Pseudomonas aeruginosa PAO1 (Pseudomonas aeruginosa PAO1) (UniProt Q9HVS4); assay: differential scanning fluorimetry thermal shift assay
[2] = system: Pseudomonas aeruginosa PAO1; type: cell-based; conditions: chemoeffector 1 mM, except molybdate 0.1 mM; for Chemotaxis: capillary assay, 30 min
[3] = biological target: T1, PA4500 (dppA3) (Pseudomonas aeruginosa, UniProt Q9HVS1); assay: Isothermal titration calorimetry, PA4500; type: binding, Pseudomonas aeruginosa PAO1; conditions: 25 °C; for Kd: read-out: KD by ITC (converted)
T1 sequence (Q9HVS1 25-533): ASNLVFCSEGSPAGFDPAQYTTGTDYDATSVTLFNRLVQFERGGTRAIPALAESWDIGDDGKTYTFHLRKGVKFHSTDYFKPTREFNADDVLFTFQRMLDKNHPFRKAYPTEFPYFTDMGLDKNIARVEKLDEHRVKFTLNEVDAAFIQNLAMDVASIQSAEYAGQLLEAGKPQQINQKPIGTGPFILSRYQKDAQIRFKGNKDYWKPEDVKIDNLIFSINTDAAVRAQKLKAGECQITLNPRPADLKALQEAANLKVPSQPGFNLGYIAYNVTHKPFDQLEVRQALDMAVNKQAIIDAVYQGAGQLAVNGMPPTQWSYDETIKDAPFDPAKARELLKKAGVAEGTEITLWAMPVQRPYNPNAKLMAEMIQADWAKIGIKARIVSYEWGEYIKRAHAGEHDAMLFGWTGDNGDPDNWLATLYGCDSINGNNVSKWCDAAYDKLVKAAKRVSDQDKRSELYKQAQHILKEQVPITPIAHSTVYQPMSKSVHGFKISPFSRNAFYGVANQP

[4] = biological target: T2, PA4497 (dppA2) (Pseudomonas aeruginosa, UniProt Q9HVS4); type: binding; conditions: arrays PM3B, PM6, PM7, PM8
T2 sequence (Q9HVS4 25-532): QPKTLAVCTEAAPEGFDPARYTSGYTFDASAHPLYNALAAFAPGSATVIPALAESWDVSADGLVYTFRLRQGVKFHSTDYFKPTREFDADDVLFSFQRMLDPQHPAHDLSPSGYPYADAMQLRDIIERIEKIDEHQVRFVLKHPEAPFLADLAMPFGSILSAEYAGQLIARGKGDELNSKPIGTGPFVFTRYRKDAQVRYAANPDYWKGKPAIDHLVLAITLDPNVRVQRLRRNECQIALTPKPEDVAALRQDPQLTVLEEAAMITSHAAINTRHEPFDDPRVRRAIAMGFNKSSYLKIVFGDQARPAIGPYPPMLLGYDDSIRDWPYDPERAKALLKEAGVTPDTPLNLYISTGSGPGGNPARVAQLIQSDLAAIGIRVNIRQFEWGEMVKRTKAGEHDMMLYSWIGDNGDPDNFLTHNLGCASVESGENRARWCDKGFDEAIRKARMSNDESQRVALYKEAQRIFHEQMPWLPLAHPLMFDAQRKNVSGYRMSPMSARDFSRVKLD

[5] = biological target: T3, PA0222 (Pseudomonas aeruginosa, UniProt Q9I6R6); assay: Isothermal titration calorimetry, PA0222; type: binding, Pseudomonas aeruginosa PAO1; conditions: 25 °C
T3 sequence (Q9I6R6 29-352): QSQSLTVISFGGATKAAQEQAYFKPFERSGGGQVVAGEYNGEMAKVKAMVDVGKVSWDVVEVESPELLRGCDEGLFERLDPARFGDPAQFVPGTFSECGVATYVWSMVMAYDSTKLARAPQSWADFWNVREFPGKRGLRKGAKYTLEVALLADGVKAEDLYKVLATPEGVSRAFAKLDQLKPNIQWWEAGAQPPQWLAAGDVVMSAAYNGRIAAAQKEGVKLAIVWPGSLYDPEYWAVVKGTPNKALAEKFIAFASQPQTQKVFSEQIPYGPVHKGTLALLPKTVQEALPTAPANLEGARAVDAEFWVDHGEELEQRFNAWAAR

[6] = biological target: PA3889 (opuCC) (Pseudomonas aeruginosa, UniProt Q9HXC4); assay: Isothermal titration calorimetry, PA3889; type: binding, Pseudomonas aeruginosa PAO1; conditions: 25 °C
PA3889 (opuCC), sequence (Q9HXC4 24-311): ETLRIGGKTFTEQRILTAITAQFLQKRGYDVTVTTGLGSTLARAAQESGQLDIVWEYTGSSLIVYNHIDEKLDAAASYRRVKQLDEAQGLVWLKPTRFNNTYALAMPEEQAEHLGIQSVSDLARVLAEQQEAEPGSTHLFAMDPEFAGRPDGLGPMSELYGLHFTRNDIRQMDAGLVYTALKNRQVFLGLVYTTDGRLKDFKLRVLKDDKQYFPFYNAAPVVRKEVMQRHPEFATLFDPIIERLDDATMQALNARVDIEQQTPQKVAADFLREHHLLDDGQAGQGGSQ

[7] = biological target: T1, PA4500 (dppA3); assay: DSF thermal shift ligand screening, PA4500; type: binding, Pseudomonas aeruginosa PAO1; conditions: arrays PM3B, PM6, PM7, PM8
[8] = biological target: PA4500 (DppA3) (Pseudomonas aeruginosa PAO1) (UniProt Q9HVS1); assay: ITC
PA4500 (DppA3) (Pseudomonas aeruginosa PAO1), sequence (Q9HVS1 25-533): as the sequence (Q9HVS1 25-533) above

[9] = biological target: PA4500 (DppA3) solute binding protein of Pseudomonas aeruginosa PAO1 (Pseudomonas aeruginosa PAO1) (UniProt Q9HVS1); assay: differential scanning fluorimetry thermal shift assay
PA4500 (DppA3) solute binding protein of Pseudomonas aeruginosa PAO1 (Pseudomonas aeruginosa PAO1), sequence (Q9HVS1 25-533): as above

[10] = biological target: PA1074 (braC) (Pseudomonas aeruginosa, UniProt P21175); assay: biochemical; type: binding, Pseudomonas aeruginosa PAO1
PA1074 (braC), sequence (P21175 27-373): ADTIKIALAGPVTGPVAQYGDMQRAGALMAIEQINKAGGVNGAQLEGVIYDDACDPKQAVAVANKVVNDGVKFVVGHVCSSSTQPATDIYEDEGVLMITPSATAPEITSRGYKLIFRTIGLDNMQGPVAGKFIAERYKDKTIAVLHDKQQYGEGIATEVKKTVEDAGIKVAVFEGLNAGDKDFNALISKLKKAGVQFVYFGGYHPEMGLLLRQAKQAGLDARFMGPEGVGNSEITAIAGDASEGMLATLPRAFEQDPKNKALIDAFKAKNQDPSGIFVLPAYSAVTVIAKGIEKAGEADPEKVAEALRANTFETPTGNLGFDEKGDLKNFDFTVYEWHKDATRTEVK

[11] = biological target: PA4913 (Pseudomonas aeruginosa, UniProt Q9HUQ0); assay: DSF thermal shift ligand screening, PA4913; type: binding, Pseudomonas aeruginosa PAO1; conditions: Tm change vs ligand-free protein
PA4913, sequence (Q9HUQ0 28-374): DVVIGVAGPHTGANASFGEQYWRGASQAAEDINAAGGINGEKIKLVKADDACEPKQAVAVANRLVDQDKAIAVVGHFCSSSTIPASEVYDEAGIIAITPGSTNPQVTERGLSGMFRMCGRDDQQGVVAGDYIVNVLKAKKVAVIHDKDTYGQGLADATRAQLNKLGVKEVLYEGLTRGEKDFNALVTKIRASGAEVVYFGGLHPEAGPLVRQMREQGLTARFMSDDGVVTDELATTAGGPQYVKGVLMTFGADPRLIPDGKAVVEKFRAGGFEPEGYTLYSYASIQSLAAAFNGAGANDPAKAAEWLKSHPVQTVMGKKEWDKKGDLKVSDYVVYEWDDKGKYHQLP

[12] = biological target: PA1493 (cysP) (Pseudomonas aeruginosa, UniProt Q9I3L9); assay: biochemical; type: binding, Pseudomonas aeruginosa PAO1; conditions: PA1493 (cysP); 25 °C
PA1493 (cysP), sequence (Q9I3L9 23-332): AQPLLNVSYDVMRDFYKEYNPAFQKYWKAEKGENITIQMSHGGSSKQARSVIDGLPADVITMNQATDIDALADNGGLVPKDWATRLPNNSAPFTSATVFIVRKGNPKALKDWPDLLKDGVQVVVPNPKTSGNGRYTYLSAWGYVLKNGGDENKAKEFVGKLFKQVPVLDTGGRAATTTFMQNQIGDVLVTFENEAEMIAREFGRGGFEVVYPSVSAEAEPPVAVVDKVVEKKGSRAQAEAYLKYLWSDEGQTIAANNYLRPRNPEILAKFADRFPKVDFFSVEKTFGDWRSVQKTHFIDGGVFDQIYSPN

[13] = biological target: PA1863 (modA) (Pseudomonas aeruginosa, UniProt Q9I2N2); assay: biochemical; type: binding, Pseudomonas aeruginosa PAO1; conditions: PA1863 (modA)
PA1863 (modA), sequence (Q9I2N2 24-251): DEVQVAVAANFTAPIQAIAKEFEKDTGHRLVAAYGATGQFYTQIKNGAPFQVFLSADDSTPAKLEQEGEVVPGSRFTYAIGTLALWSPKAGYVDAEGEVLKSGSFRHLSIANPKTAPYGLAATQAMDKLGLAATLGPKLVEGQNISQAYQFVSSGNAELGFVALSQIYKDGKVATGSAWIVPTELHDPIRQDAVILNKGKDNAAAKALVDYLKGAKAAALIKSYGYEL

Compound: Val-Tyr-Val (peptide)
- Tm increase (DSF) [1]: 5 °C

Compound: C[C@H](N)C(=O)N[C@@H](C)C(=O)N[C@@H](C)C(=O)O [Ala-Ala-Ala]
- Chemotaxis [2]: No (Positive chemotaxis was considered when the number of bacterial cells per capillary was superior to 5000.)
- No Binding Observed by ITC [3]: absence of binding
- Tm DSF (Tm increase) [4]: 9.1 °C

- Tm DSF (Tm increase) [4]: 5.1 °C
Compound: CC[C@H](C)[C@H](NC(=O)CNC(=O)CN)C(=O)O [Gly-Gly-Ile] (H-Gly-Gly-Ile-OH)

Compound: C[C@H](NC(=O)CNC(=O)CN)C(=O)O [Gly-Gly-Ala]
- Chemotaxis [2]: No (Positive chemotaxis was considered when the number of bacterial cells per capillary was superior to 5000.)
- Tm DSF (Tm increase) [4]: 7.6 °C

Compound: CCCC(=O)O [Butyrate, butyric acid]
- No Binding Observed by ITC [5]: failed to bind

Compound: C[N+](C)(C)CCO [Choline]
- No Binding Observed by ITC [6]: no binding heats were observed

Compound: C[C@H](N)C(=O)N[C@@H](Cc1ccccc1)C(=O)O [Ala-Phe]
- Tm DSF (Tm increase) [7]: 2.0 °C
- Kd [3]: 6.1 µM

Compound: Ala-His (peptide)
- Ka [8]: 134000 M⁻¹
- Tm increase (DSF) [9]: 3 °C

Compound: C[C@H](N)C(=O)O [L-Ala]
- Kd [10]: 0.21 µM
- Tm DSF (Tm increase) [11]: 12.7 °C
- No Binding Observed by ITC [3]: absence of binding

Compound: Ala-Phe (peptide)
- Ka [8]: 162000 M⁻¹
- Tm increase (DSF) [9]: 2 °C

- Tm DSF (Tm increase) [4]: 6.6 °C
Compound: NCC(=O)NC(Cc1ccccc1)C(=O)NC(Cc1ccccc1)C(=O)O (stereo not drawn) [Gly-Phe-Phe] (H-Gly-Phe-Phe-OH; configuration not given here)

Compound: O=[Se](O)O [selenite]
- No Binding Observed by ITC [12]: did not show any binding

Compound: CC[C@H](C)[C@H](N)C(=O)O [L-Ile]
- Kd [10]: 0.28 µM

Compound: Leu-Gly-Gly (peptide)
- Tm increase (DSF) [1]: 3.2 °C

Compound: phosphate
- No Binding Observed by ITC [12]: did not show any binding

Compound: C[C@H](N)C(=O)N[C@@H](Cc1c[nH]cn1)C(=O)O [Ala-His] (H-Ala-His-OH; N-terminus and C-terminus assumed)
- Tm DSF (Tm increase) [7]: 3.0 °C
- Kd [3]: 7.4 µM

Compound: Gly-Gly-Phe (peptide)
- Tm increase (DSF) [1]: 3.7 °C

Compound: [O]=[Mo](=[O])([O-])[O-] [Molybdate]
- Kd ([13]; Affinity by ITC, value as printed in text): ~0.01 µM
- Kd ([13]; KD by ITC, 25 °C): 0.01 µM
- No Binding Observed by ITC [12]: did not show any binding

Compound: C[C@H](N)C(=O)NCC(=O)O [Ala-Gly] (H-Ala-Gly-OH)
- Chemotaxis [2]: No (Positive chemotaxis was considered when the number of bacterial cells per capillary was superior to 5000.)

Compound: N[C@@H](CCC(=O)O)C(=O)N[C@@H](CCC(=O)O)C(=O)O [Glu-Glu] (H-Glu-Glu-OH)
- No Binding Observed by ITC [3]: absence of binding

Compound: Phe-Gly-Gly (peptide)
- Tm increase (DSF) [1]: 8.3 °C

Compound: Gly-Gly-Gly (peptide)
- Tm increase (DSF) [1]: 4.4 °C

- Tm DSF (Tm increase) [4]: 5.0 °C
Compound: CC(C)CC(N)C(=O)NC(CC(C)C)C(=O)NC(CC(C)C)C(=O)O (stereo not drawn) [Leu-Leu-Leu] (H-Leu-Leu-Leu-OH; configuration not given here)

Compound: C[C@@H](N)C(=O)O [D-Ala]
- No Binding Observed by ITC [10]: no binding was detected
- Tm DSF (Tm increase) [11]: 6.8 °C
- Chemotaxis [2]: Yes [15, 41] Yes [15, 41] Yes [15, 41] Yes [15, 41] Yes [15, 41] Yes Yes [15, 41] n. d. (Positive chemotaxis was considered when the number of bacterial cells per capillary was superior to 5000.)
- Chemotaxis response in words [2]: very strong taxis

Compound: CC(C)C[C@H](N)C(=O)NCC(=O)NCC(=O)O [Leu-Gly-Gly] (H-Leu-Gly-Gly-OH)
- Chemotaxis [2]: Yes (Positive chemotaxis was considered when the number of bacterial cells per capillary was superior to 5000.)
- Tm DSF (Tm increase) [4]: 3.2 °C
